Results from patent EP0255420B1, “Antiviral agent for inhibiting growth of virus of acquired immune deficiency syndrome (AIDS)” (priority 1986, dated 1988).
In brackets after ≈: the same amount, converted by molar mass. Read-outs that look alike come from different tables or passages of the source.

Tests used:
[1] = test system: herpes simplex virus; settings: cited from earlier work
[2] = test system: VSV; settings: cited from earlier work
[3] = test system: HIV; test: Cytopathic effect in HIV infected clone No.8 cells of Molt-4 (viable cells, viability); assay type: cell-based; settings: 1 mg/ml
[4] = test system: herpes simplex virus; settings: human embryonic fibroblast; cited from earlier work
[5] = test system: MT-4 cells; test: Growth of MT-4 cells not exposed to virus (viable cell count); assay type: cell-based; settings: 2 mg/ml
Description: • Fig. 1 is a view showing direct effect of glycyrrhizin on HIV induced plaque forming activity in MT-4 cells. Results are the mean of two experiments each performed in triplicate. • Fig. 2 is a view showing inhibition of cytopathic effect of HIV on MT-4 cells by glycyrrhizin. […] Data are from a single experiment, representative of four separate experiments. […] The viable cells were detected by trypan blue exclusion staining method.

[6] = test system: HIV; test: Assay for HIV specific antigen expression in HIV infected MT-4 cells (indirect immunofluorescence); assay type: cell-based; settings: for percentage of IF-positive cells: day 3 after infection
[7] = test system: HIV; test: Reverse transcriptase activity in culture fluids of HIV infected clone No.8 cells of Molt-4; assay type: cell-based; settings: 1 mg/ml
[8] = Acute toxicity, rat; assay type: in vivo; settings: Oral administration (rat)
[9] = test system: HIV; test: HIV-specific antigen expression in HIV infected clone No.8 cells of Molt-4 (immunofluorescence); assay type: cell-based; settings: 1 mg/ml
[10] = test system: HIV; test: Cell fusion of HIV infected clone No.8 cells of Molt-4; assay type: cell-based; settings: 1 mg/ml, day 6 and 9
[11] = test system: normal pheripleral blood monouclear cells; test: 3H-thymidine uptake in normal peripheral blood mononuclear cells (lectin-induced blast formation); assay type: cell-based; settings: normal lymphocytes, 3 days
Protocol: (§1) MT-4 cells were adjusted to 3x10^5 cells/ml in fresh medium and cultured with various concentrations of glycyrrhizin in a 96-flat bottom well microtiter plate for 3 days. 10^6 pheripleral blood monouclear cells were cultured with 1 wg/ml of poly clonal mitogen PHA or concanavalin A various concentrations of glycyrrhizin for 3 days. Cells were incubated with either 1 µCi/well of ^3H-thymidine (20 Ci/m mol.; New Engl.Nuclear, Boston, MA), for the last 18 hours. The cells were harvested on a glassfiber filter paper and counted in a liquid scintillation counter. All experiments were carried out in triplicate.

[12] = test system: HIV; assay type: cell-based
Protocol: HIV was obtained from the culture supernatant of Molt-4/HIV. Titer of virus preparation was 6x10^4 plaque forming units/ml. Infection of MT-4 cells and clone No. 8 cells of Molt-4 with HIV was made at a multiplicity of infectin of 0.002.
To evaluate the direct effect of glycyrrhizin on the infection of HIV in MT-4 cells, plaque assay using agarose overlay medium with various concentrations of glycyrrhizin was performed. Briefly, in order to fasten MT-4 cells onto culture vessels, 35 mm polystyrene tissue culture dishes were coated with poly-L-lysine (Sigma Chemical Co., St. Louis,Mo) One and half milliliters of 1.50 x 10^6/ml MT-4 cells were dropped onto each poly-L-lysine-coated dish and incubator for 1 hour at room temperature. The dishes were gently washed with phosphate buffered saline to remove unbound cells, 100 p.1 of appropriate diluted virus preparation was slowly added and incubated for 1 hour at room temperature for virus adsorption. After adsorption, 1 ml of the agarose overlay medium consisting of RPMI 1640 medium with 10 % fetal calf serum, antibiotics and 0.6 % agarose (Sea plaque Agarose, Marine Colloid Corp., Rockland, Me) was poured into each dish. The dishes were incubated in a C02 incubator at 37°C for 3 days and 1 ml of agarose overlay medium containing neutral red was added. The dishes were incubated 3 more days and visible plaque were counted. All experiments were carried out in triplicate.

[13] = molecular target: reverse transcriptase (Human immunodeficiency virus type 1 group M subtype B, UniProt P04585); test: Reverse transcriptase assay with disrupted HIV; assay type: biochemical; design: made in house; host or cells: virions from culture supernatants of HIV-producing Molt-4 cells (Molt-4/HIV), disrupted with Triton X-100
Protocol: Supernatants of Molt-4/HIV were concentrated 100 times by sucrose gradient ultracentrifugation. The viral pellets were disrupted by addition of suspension buffer containing 5 mM Tris-HCI(pH 8.1), 0.5 M KCI, 0.1 mM dithiothreitol and 0.1 % Triton® X-100. The assay for reverse transcriptase activity was performed at 37°C for 1 h with a 10 0 of the disrupted HIV in a final volume of 50 µl containing 50 mM Tris-HCI(pH 8.4), 2 mM dithiothreitol, 100 mM KCI, 10 mM MgCI, 0.01 % Triton X-100. 1 wCi 3H-thymidine triphosphate (57 Ci/m mol.; Amersham, Buckinghanshire, UK) and 50 gg/ml poly(rA)/oligo(dT)(P-L Biochemicals Inc., Milwaukee, Wis). The reaction was stopped with 5% trichloroacetic acid, and precipitates were collected on glass fibre filters and counted in a liquid scintillation counter (Harada et. al; Virology 146, p.272-281,1985b). The assays were carried out in triplicate.

[14] = mouse, in vivo, ip
[15] = test system: HIV; test: Number of HIV in culture fluids of infected clone No.8 cells of Molt-4 (MT-4 cell plaque assay system); assay type: cell-based; settings: 1 mg/ml
[16] = test system: Varicella-Zoster virus; settings: human embryonic fibroblast; cited from earlier work
[17] = test system: HIV; test: Assay for HIV induced cytopathic effects in HIV infected MT-4 cells (viable cells, trypan blue exclusion); assay type: cell-based; settings: day 3, multiplicity of infection 0.002
[18] = Acute toxicity, mouse
[19] = test system: HIV particles; test: Inactivation of HIV particles by glycyrrhizin (pre-incubation, then plaque assay); assay type: cell-based; settings: even at 2 mg/ml, 60 min at 37°C
Protocol: 0.5 ml of HIV containing plaque forming units was mixed with 0.5 ml of various concentrations of glycyrrhizin in the test tubes and incubated at 37°C.
After 60 min. incubation 0.1 ml of each mixture was diluted with 19.9 ml of culture medium, and 0.1 ml of the […] diluted virus preparation was added. After adsorption, 1 ml of the agarose overlay medium consisting of RPMI-1640 medium with 10 % fetal calf serum, antibiotics and 0.6 % agarose was poured in. The maximum concentration of the diluted glycyrrhizin in plaque assay medium was 0.01 mg/ml, and this concentration itself reduced about 10 % of HIV induced plaque forming activity in MT-4 cells.

[20] = test system: MT-4 cells; test: 3H-thymidine uptake in MT-4 cells (DNA synthesis); assay type: cell-based; settings: 3 days
Protocol: as §1

CC1(C)[C@@H](O)CC[C@]2(C)[C@H]3C(=O)C=C4[C@@H]5C[C@@](C)(C(=O)O)CC[C@]5(C)CC[C@@]4(C)[C@]3(C)CC[C@@H]12 [glycyrrhetinic acid]
replication of herpes simplex virus [1]: suppress the replication
inactivation of virus particles ([1]; herpes simplex virus incubated with compound for 30 min): inactivates the virus particles
inactivation of virus particles ([2]; VSV incubated with compound for 30 min): inactivates the virus particles
replication of VSV [2]: suppress the replication

CC1(C)[C@@H](O[C@H]2O[C@H](C(=O)O)[C@@H](O)[C@H](O)[C@H]2O[C@@H]2O[C@H](C(=O)O)[C@@H](O)[C@H](O)[C@H]2O)CC[C@]2(C)[C@H]3C(=O)C=C4[C@@H]5C[C@@](C)(C(=O)O)CC[C@]5(C)CC[C@@]4(C)[C@]3(C)CC[C@@H]12 [glycyrrhizin]
viability ([3]; on day 3): 91.4%
viable cells ([3]; on day 3): 1.5e+06 mL⁻¹
viability ([3]; on day 6): 83.4%
viable cells ([3]; on day 6): 3.4e+06 mL⁻¹
viability ([3]; on day 9): 84.4%
viable cells ([3]; on day 9): 7.57e+06 mL⁻¹
ID50 against herpes simplex virus [4]: 600 µg/mL (≈ 729 µM)
growth inhibition [5]: 50%
percentage of IF-positive cells ([6]; 0.005 mg/ml): 70.9
percentage of IF-positive cells ([6]; 0.05 mg/ml): 69.3
expression of HIV-specific antigen (in words) ([6]; 0.25 mg/ml): significant inhibition
percentage of IF-positive cells ([6]; 0.25 mg/ml): 23.3
expression of HIV-specific antigen (in words) ([6]; 0.5 mg/ml): almost completely suppressed
percentage of IF-positive cells ([6]; 0.5 mg/ml): 1.0
expression of HIV-specific antigen (in words) ([6]; 1 mg/ml): almost completely suppressed
percentage of IF-positive cells ([6]; 1 mg/ml): 0.6
RT ([7]; on day 3, CPM per 10^4 viable cells): 1536 cpm
RT ([7]; on day 6, CPM per 10^4 viable cells): 5369 cpm
RT ([7]; on day 9, CPM per 10^4 viable cells): 4369 cpm
LD5o [8]: 3000 mg/kg
IF posivive cells ([9]; on day 6): 7.1%
IF positive cells ([9]; on day 9): 5.8%
fusion on clone No.8 cells of Molt-4 [10]: did not occur
ID50 on PHA response ([11]; PHA): 2100 µg/mL (≈ 2550 µM)
ID50 on concanavalin A response ([11]; concanavalin A): 2000 µg/mL (≈ 2430 µM)
reduction of HIV induced plaque forming activity in MT-4 cells ([12]; 0.01 mg/ml in plaque assay medium): about 10%
suppression of plaque formation ([12]; 0.05 mg/ml in agarose overlay medium, MT-4 cells): 34.2%
inhibition of plaque formation ([12]; 0.5 mg/ml, MT-4 cells): completely inhibited
inhibition of plaque formation ([12]; 1 mg/ml, MT-4 cells): completely inhibited
selectivity index (the ratio on the ID50 for host cell DNA synthesis to the average ID50 for HIV) ([12]; MT-4 cells): 17.2
ID50 (plaque formation of HIV) ([12]; MT-4 cells, Fig.1): 125 µg/mL
inhibition of reverse transcriptase activity of HIV (in words) ([13]; even at 10 mg/ml): did not inhibit
LD5o [14]: 225 to 244 mL/kg
number of HIV ([15]; on day 3): 500< pfu/ml
number of HIV ([15]; on day 6): 500< pfu/ml
number of HIV ([15]; on day 9): 1000 pfu/ml
ID50 against Varicella-Zoster virus [16]: 580 µg/mL (≈ 705 µM)
growth inhibition of infected cultures as compared with the uninfected MT-4 cells ([17]; 0.25 mg/ml): not significant
growth inhibition of infected cultures as compared with the uninfected MT-4 cells ([17]; 0.5 mg/ml): not significant
growth inhibition of infected cultures as compared with the uninfected MT-4 cells ([17]; 1 mg/ml): not significant
LD5o ([18]; Intravenous injection 2 % aqueous solution (mouse)): 682.5 mg/kg
LD5o ([18]; Subcutaneous injection 5 % aqueous solution (mouse)): 1873.3 mg/kg
inactivation of HIV particles [19]: did not inactivate
ID50 for DNA synthesis of uninfected MT-4 cells [20]: 2150 µg/mL

Cc1cn([C@H]2C[C@H](N=[N+]=[N-])[C@@H](COP(=O)(O)OP(=O)(O)OP(=O)(O)O)O2)c(=O)[nH]c1=O [3' -azido-TIP, 3'-azido-3'-deoxythymidine triphosphate]
inhibition of reverse transcriptase activity ([13]; 0.005 mg/ml): 97%
